Experimental data from US20210338679A1, “NOVEL USES” (INTRA-CELLULAR THERAPIES, INC., priority 2018, published 2021).

How the values were obtained:
[1] = tested on: cytokine markers (IFNγ, IL-1β, MCP1-β, TNF-α, IL10, MCP-1/CCL2); assay: Inflammatory cytokine biomarkers in mouse zymosan pleurisy model; format: in vivo, mice
Method: (§1) Zymosan is injected into the pleural cavities of mice in order to induce sterile inflammation. Infiltration of leukocytes, neutrophils, and macrophages are monitored at days 3 and 7 following injection. Detection of various cell types are identified according to the gating strategy outlined in Table 1 below.
(§2) Zymosan was injected into the pleural cavities of mice in order to induce sterile inflammation by the methods discussed in Example 1. Compound 1 was administered to test subjects to observe the effects on a variety of inflammatory biomarkers. […] IFNγ, IL-1β, MCP1-β and TNF-α decreased following administration of Compound 1 in all serum and plasma samples.

[2] = tested on: leukocytes, neutrophils, and macrophages (M1/M2 macrophages); assay: Mouse zymosan pleurisy model, flow cytometry of infiltrating cells; format: in vivo, mice; conditions: for inflammatory resolution (shift from M1 to M2): zymosan sterile inflammation, FIGS. 1-9
Method: as §1
In this model, injection of zymosan causes the recruitment of various waves of leukocytes, which are observed and recorded. Exudate volume increases to a maximum over a period of 24 hours, and neutrophils increase within 4 hours and reach a maximum by 48 hours. Lymphocytes of the adaptive immune system enter at a later stage, after three days, which is signaled by macrophages presenting antigens. A resolution phase is well documented in this model and is accompanied by decreased total macrophage number and transition into M2 phenotype.
In the studies, Compounds 1 and 2 were administered to the test subjects, and the effect the compounds had on infiltration of leukocytes, neutrophils, and macrophages was observed.
Similar tests were conducted with Compound 2, the results of which are illustrated in FIGS. 8 and 9. […] An additional test was carried out according to the same method. Mice were injected intraperitoneally with 1 mg Zymosan followed by 10 mg/kg Compound 1. Macrophage levels were recorded at injection, then at 4, 8, 16, 24, 48 and 72 hours post-injection.

[3] = tested on: leukocytes, neutrophils, and macrophages (M1/M2 macrophages); assay: as above; format: in vivo, mice; conditions: 1 mg Zymosan i.p. followed by 10 mg/kg; day 7; FIG. 11A
BV2 cells = assay: Microglia chemotaxis assay; format: cell-based; conditions: 100 μM ADP, 4 hours; FIG. 10
Method: BV2 cells were added to upper chamber of a 5 μm pore Transwell 96-well plate over a reservoir containing 100 μM ADP and incubated at 37° C. with 5% CO2 for 4 hours. After the incubation cells were harvested with pre-warmed cell detachment solution for 30 minutes in the same incubation conditions. 75 μl of this cell detachment solution was combined with 75 μl of culture medium in a new 96 well plate compatible with a fluorescence reader. Cell number in bottom chamber was determined by adding CyQuant® GR dye and reading in the Envision fluorescence reader at 480 nm EX/520 nm EM.

[4] = tested on: metabolites of AA and DHA; assay: Detection of arachidonic acid and docosahexaenoic acid metabolites in mouse zymosan pleurisy model; format: in vivo, mice
Method: as §2, with “biomarkers. Results were recorded after 4 hours.” for “biomarkers.”
Lipids are known to be involved in regulation of a multitude of cellular responses including cell growth and death, and inflammation/infection, via receptor-mediated pathways. Various lipids are involved in both the initiation and resolution of inflammation. Pro-resolving lipid mediators are produced naturally in the body from unsaturated fatty acids, such as arachidonic acid (AA) and docosahexaenoic acid (DHA). Further studies were carried out to identify metabolites of AA and DHA, which are summarized below in Tables 2 and 3.

[5] = after 4 hours, serum and plasma samples
[6] = arachidonic acid metabolite, compared with controls
[7] = docosahexaenoic acid metabolite

## CN1C(=O)c2c(nn(Cc3ccc(-c4cccc(F)n4)cc3)c2Nc2ccccc2)N2C1=N[C@@H]1CCC[C@@H]12 [Compound 1]
[1]; after 4 hours, serum
  IL10: decrease
[1]; [5]
  IFNγ: decreased
  IL-1β: decreased
  MCP1-β: decreased
  TNF-α: decreased
[1]; plasma, at 3 and 7 days, in comparison with control groups, FIG. 7
  inflammatory biomarkers (MCP-1/CCL2): less inflammatory biomarkers
[2]; 1 mg Zymosan i.p. followed by 10 mg/kg, 4 hours, FIG. 12A
  Arg1+ M2 macrophages: increased
[2]; 1 mg Zymosan i.p. followed by 10 mg/kg, all observed times, FIGS. 11A, 11B
  M1 macrophage levels: lower M1 macrophage levels
[2]; 1 mg Zymosan i.p. followed by 10 mg/kg, relative to control at 2 and 3 days
  CD206+ M2 macrophages: significantly increased
[2]; day 3, among all animal groups, FIG. 6A
  MFI for CD38+ on macrophages: lowest value
[2]; day 3, FIG. 5A
  total numbers of CD38+ macrophages: decreased
[2]; day 7, compared with disease only and vehicle animals, FIG. 3A
  number of neutrophils: less dramatic decrease
[2]
  inflammatory resolution (shift from M1 to M2): enhanced inflammatory resolution
[3]
  CD80+ macrophages (M1), difference to control: significant different
BV2 cells
  motility of the BV2 cells across the membrane: marked dampening effect
[4]; [6]
  5-HETE (intermediate mediator linked to resolution): No change
  12-HETE (intermediate mediator linked to resolution): Increase
  15-HETE (intermediate mediator linked to resolution): Increase
  LTB4 (pro-inflammatory mediator): No change
  PGE2 (pro-inflammatory mediator): Decrease
  TXB2 (pro-inflammatory mediator): Decrease
[4]; [7]
  14-HDOHE (resolution mediator): Increase
  17-HDOHE (intermediate mediator linked to resolution): Increase
  RVD5 (intermediate mediator linked to resolution): Increase

## CN1C(=O)c2c(nn(Cc3ccc(-c4ccccn4)cc3)c2Nc2ccccc2)N2C1=N[C@@H]1CCC[C@@H]12 [Compound 2]
[2]; 3 mg/kg, day 7, FIG. 8
  CD38+ macrophages: significant drop
[2]; 3 mg/kg, day 7, FIG. 9
  Erg2+ macrophages: sharp and significant increase
[2]
  inflammatory resolution (shift from M1 to M2): enhanced inflammatory resolution

## C[C@@H]1C[C@H]2[C@@H]3CCC4=CC(=O)C=C[C@]4(C)[C@@]3(F)[C@@H](O)C[C@]2(C)[C@@]1(O)C(=O)CO [Dexamethasone, reference compound]
[2]; 2 mg/kg, day 3 or 7, FIG. 8
  number of CD38+ macrophage populations: no significant effect
[2]; 2 mg/kg, day 3 or 7, FIG. 9
  number of Erg2+ macrophage populations: no significant effect
